Results taken from publication PMC12501029, “Discovery of a CNS active GSK3 degrader using orthogonally reactive linker screening” (Nature Communications, 2025).

Target: T1, GSK3α (Homo sapiens, UniProt P49840)
T1 construct: Endogenous GSK3 paralog degradation with compounds 24 and 26 and negative controls 27 and 28 in HEK293 cells; host or cells: HEK293
Test: Immunoblot degradation of endogenous GSK3α in HEK293 cells
Format: cell-based
Conditions: 10 nM, 2 h
Method: HEK293, HAP1, HAP1 CRBN KO and SH-SY5Y cells were plated in either 6 cm plates or 6-well plates at varying densities (0.5–0.7 × 10^6 cells per plate or wells), and MEF cells were plated in 10 cm plates (1–1.2 × 10^6 cells per plate) depending on experimental set up in respective culturing condition as described above. Stock solutions of compounds were prepared as 10 mM in DMSO (Sigma–Aldrich). Working dilutions were made up fresh in DMSO and culturing media or differentiation media was refreshed prior to any compound treatments. For mode of action studies, cells were pre-treated with inhibitors for 2 h: 1 µM MG132 (Merck, 474790-5 mg), 1 µM MLN4924 (Merck, 5054770001) or 1 µM GSK3 inhibitor (compound 29), before treating with PROTACs for 2, 4 or 24 h as indicated in figure legends. Cells were washed twice with ice-cold PBS (Gibco), harvested in PBS and pelleted, cells were resuspended in RIPA buffer supplemented with complete EDTA-free protease inhibitor cocktail (Roche,11873580001, 1/10 mL) and phosSTOP (Roche, 04906845001, 1 tablet/10 mL) for 20 min lysis on ice then cleared via centrifugation at 16,000 × g, 4 °C for 20 min. […] Following clearance of lysates, protein concentrations were determined by the BCA assay (Fisher Scientific, 23225) or Bradford assay (Bio-rad). […]

T1 sequence (P49840 whole entry): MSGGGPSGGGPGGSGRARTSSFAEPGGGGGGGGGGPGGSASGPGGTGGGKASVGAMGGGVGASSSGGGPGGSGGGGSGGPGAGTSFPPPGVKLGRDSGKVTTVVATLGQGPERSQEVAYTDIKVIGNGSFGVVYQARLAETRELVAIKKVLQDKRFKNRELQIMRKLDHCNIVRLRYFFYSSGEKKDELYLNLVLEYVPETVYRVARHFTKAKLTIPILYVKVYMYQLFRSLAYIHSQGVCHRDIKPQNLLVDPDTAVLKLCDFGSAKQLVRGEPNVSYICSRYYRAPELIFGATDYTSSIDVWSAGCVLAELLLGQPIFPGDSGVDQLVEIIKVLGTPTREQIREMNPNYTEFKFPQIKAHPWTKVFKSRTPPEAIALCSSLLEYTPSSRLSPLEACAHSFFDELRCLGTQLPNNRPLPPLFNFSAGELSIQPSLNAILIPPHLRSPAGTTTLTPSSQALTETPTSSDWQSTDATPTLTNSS

Cn1nc(N2CCC(=O)NC2=O)c2ccc(CN3CCN(Cc4ccc(-c5cn(-c6ccc(-c7cn8nccc(C(=O)Nc9cnccc9N9CCOCC9)c8n7)cc6)nn5)nc4)CC3)cc21 [compound 24]
endogenous GSK3α degradation: almost complete

Cn1nc(N2CCC(=O)NC2=O)c2ccc(CN3CCN(CCCc4cn(-c5ccc(-c6cn7nccc(C(=O)Nc8cnccc8N8CCOCC8)c7n6)cc5)nn4)CC3)cc21 [compound 26]
endogenous GSK3α degradation: almost complete
